From US20220331303A1, “USE OF AN OREXIN 2 RECEPTOR AGONIST FOR THE TREATMENT OF EXCESSIVE SLEEPINESS” (Takeda Pharmaceutical Company Limited, priority 2019, published 2022)
Values joined by “and” are separate entries in the source; they are usually repeats but may differ in a detail not shown here. Identical values can stand only once.

Tested on: sleep-deprived healthy volunteers
Assay: Maintenance of wakefulness test (MWT) in sleep-deprived healthy volunteers
Assay type: in vivo, human
Conditions: for Stage N2 Duration (MWT), LS Mean Difference vs placebo / Total Microsleeps (MWT), LS Mean / Total Microsleeps (MWT), LS Mean Difference vs placebo / Duration Total Microsleeps (MWT), LS Mean / Duration Total Microsleeps (MWT), LS Mean Difference vs placebo / Latency to Sleep Onset on MWT, LS Mean / Latency to Sleep Onset on MWT, LS Mean Difference vs placebo / Stage N1 Duration (MWT), LS Mean / Stage N1 Duration (MWT), LS Mean Difference vs placebo / Stage N2 Duration (MWT), LS Mean: Compound A 112 mg (HD)
Protocol: The primary objective of this study was to determine the effect of Compound A (methyl (2R,3S)-3-((methylsulfonyl)amino)-2-(((cis-4-phenylcyclohexyl)oxy)methyl)piperidine-1-carboxylate), 44 mg (low dose [LD]) and 112 mg (high dose [HD]), after a single IV dose (compared to placebo) on promoting wakefulness as measured by sleep latency on the MWT (performed at approximately 2, 4, 6, and 8 hours post-dosing starting at approximately 1:00 AM and then at approximate times of 3:00, 5:00, and 7:00 AM) in sleep-deprived healthy volunteers.
This was a phase 1b, single-center, randomized, double-blind, double-dummy, placebo- and active-controlled, 4-period Williams design crossover study to evaluate the PK, PD, and safety of Compound A in sleep-deprived healthy volunteers. Compound A was administered as a 9-hour IV infusion.
Healthy adult male subjects aged 18 to 40 years, inclusive, who satisfied the inclusion and exclusion criteria were enrolled in the trial. On Day 1 of treatment period 1, eligible subjects were equally randomized to 4 treatment sequence groups (sequence 1 to 4) which defined the order of administration for Compound A LD, Compound A HD (both delivered as a 9-hour IV infusion), modafinil 300 mg, and placebo.
During the day before dosing on Day 1, participants were administered the KSS at scheduled timepoints. A practice MWT session was performed on Day 1 treatment period 1 (only once during the entire study) to familiarize subjects with the procedures. Study drug was administered in the clinic in the evening on Day 1 of each treatment period. Subjects underwent the MWT and KSS at specified timepoints after the start of the infusion. Subjects were required to stay awake between the MWT tests. Following completion of the IV infusion on Day 2, subjects underwent an additional MWT test. When the final MWT test and cognitive testing were completed, subjects were allowed to sleep (recovery sleep) for approximately 6 hours. PSG recording was collected during this time. Subjects were discharged from the unit after completion on Day 2 with continuing actigraphy upon discharge (to begin on Day −6 before the next treatment period). The interval between each subsequent treatment period was at least 7 days to ensure that the subject's circadian rhythm had returned to a normal cycle. Subject's vital signs, including BP, were monitored during the dosing and testing period. Blood samples for determination of Compound A plasma concentrations were collected at specified timepoints on Days 1 and 2 of each treatment period. Subjects completed the Columbia-Suicide Severity Rating Scale (C-SSRS) during screening, before study drug administration, and before discharge on Day 2 of each treatment period.
Primary endpoint: Latency for each MWT, defined as time to sleep onset.

[1] = average overall during infusion
[2] = Compound A 112 mg, after the end of infusion (1 hour post end of infusion)
[3] = HD: Compound A 112 mg, 2 HOURS POST INFUSION START
[4] = HD: Compound A 112 mg, 4 HOURS POST INFUSION START
[5] = HD: Compound A 112 mg, 6 HOURS POST INFUSION START
[6] = HD: Compound A 112 mg, 8 HOURS POST INFUSION START
[7] = HD: Compound A 112 mg, Average Overall, MWT during infusion
[8] = LD: Compound A 44 mg, 2 HOURS POST INFUSION START
[9] = LD: Compound A 44 mg, 4 HOURS POST INFUSION START
[10] = LD: Compound A 44 mg, 6 HOURS POST INFUSION START
[11] = LD: Compound A 44 mg, 8 HOURS POST INFUSION START
[12] = LD: Compound A 44 mg, Average Overall, MWT during infusion

COC(=O)N1CCC[C@H](NS(C)(=O)=O)[C@@H]1CO[C@H]1CC[C@@H](c2ccccc2)CC1 [Compound A, methyl (2R,3S)-3-((methylsulfonyl)amino)-2-(((cis-4-phenylcyclohexyl)oxy)methyl)piperidine-1-carboxylate]
Stage N2 Duration (MWT), LS Mean Difference vs placebo (4 hours post infusion start): -1.15 min | Total Microsleeps (MWT), LS Mean (4 hours post infusion start): 0.00 | Total Microsleeps (MWT), LS Mean Difference vs placebo (4 hours post infusion start): −2.35 | Duration Total Microsleeps (MWT), LS Mean (6 hours post infusion start): 0.43 s | Duration Total Microsleeps (MWT), LS Mean Difference vs placebo (6 hours post infusion start): -6.97 s | Latency to Sleep Onset on MWT, LS Mean (6 hours post infusion start): 38.36 min | Latency to Sleep Onset on MWT, LS Mean Difference vs placebo (6 hours post infusion start): 32.21 min | Stage N1 Duration (MWT), LS Mean (6 hours post infusion start): 0.07 min | Stage N1 Duration (MWT), LS Mean Difference vs placebo (6 hours post infusion start): -1.08 min | Stage N2 Duration (MWT), LS Mean (6 hours post infusion start): 0.06 min | Stage N2 Duration (MWT), LS Mean Difference vs placebo (6 hours post infusion start): -0.44 min | Total Microsleeps (MWT), LS Mean (6 hours post infusion start): 0.11 | Total Microsleeps (MWT), LS Mean Difference vs placebo (6 hours post infusion start): −1.14 | Duration Total Microsleeps (MWT), LS Mean (8 hours post infusion start): 5.21 s | Duration Total Microsleeps (MWT), LS Mean Difference vs placebo (8 hours post infusion start): -2.59 s | Latency to Sleep Onset on MWT, LS Mean (8 hours post infusion start): 36.86 min | Latency to Sleep Onset on MWT, LS Mean Difference vs placebo (8 hours post infusion start): 33.33 min | Stage N1 Duration (MWT), LS Mean (8 hours post infusion start): 0.18 min | Stage N1 Duration (MWT), LS Mean Difference vs placebo (8 hours post infusion start): -0.97 min | Stage N2 Duration (MWT), LS Mean (8 hours post infusion start): 0.28 min | Stage N2 Duration (MWT), LS Mean Difference vs placebo (8 hours post infusion start): -0.82 min | Total Microsleeps (MWT), LS Mean (8 hours post infusion start): 1.11 | Total Microsleeps (MWT), LS Mean Difference vs placebo (8 hours post infusion start): −0.19 | Duration Total Microsleeps (MWT), LS Mean [1]: 1.40 s | Duration Total Microsleeps (MWT), LS Mean Difference vs placebo [1]: -7.68 s | Latency to Sleep Onset on MWT, LS Mean [1]: 38.82 min and 38.82 (1.955) min | Latency to Sleep Onset on MWT, LS Mean Difference vs placebo [1]: 30.21 min and 30.2 min and 30.21 (2.682) min | Stage N1 Duration (MWT), LS Mean [1]: 0.04 min | Stage N1 Duration (MWT), LS Mean Difference vs placebo [1]: -1.23 min | Stage N2 Duration (MWT), LS Mean [1]: 0.09 min | Stage N2 Duration (MWT), LS Mean Difference vs placebo [1]: -0.81 min | Total Microsleeps (MWT), LS Mean [1]: 0.31 | Latency to Sleep Onset on MWT, LS Mean (SE) [2]: 2.36 (2.241) | Latency to Sleep Onset on MWT, LS Mean Difference vs placebo, Estimate (SE) [2]: −2.29 (2.752) | Total Sleep Time LS Mean [3]: 0.02 min | Total Sleep Time LS Mean Difference vs Placebo Estimate [3]: -2.71 min | Total Wake Time LS Mean [3]: 39.89 min | Total Wake Time LS Mean Difference vs Placebo Estimate [3]: 22.17 min | Total Sleep Time LS Mean [4]: -0.01 min | Total Sleep Time LS Mean Difference vs Placebo Estimate [4]: -3.16 min | Total Wake Time LS Mean [4]: 40.08 min | Total Wake Time LS Mean Difference vs Placebo Estimate [4]: 30.03 min | Total Sleep Time LS Mean [5]: 0.21 min | Total Sleep Time LS Mean Difference vs Placebo Estimate [5]: -2.01 min | Total Wake Time LS Mean [5]: 38.86 min | Total Wake Time LS Mean Difference vs Placebo Estimate [5]: 32.44 min | Total Sleep Time LS Mean [6]: 0.57 min | Total Sleep Time LS Mean Difference vs Placebo Estimate [6]: -2.35 min | Total Wake Time LS Mean [6]: 37.36 min | Total Wake Time LS Mean Difference vs Placebo Estimate [6]: 33.71 min | Total Sleep Time LS Mean [7]: 0.20 min | Total Sleep Time LS Mean Difference vs Placebo Estimate [7]: -2.56 min | Total Wake Time LS Mean [7]: 39.05 min | Total Wake Time LS Mean Difference vs Placebo Estimate [7]: 29.59 min | Total Sleep Time LS Mean [8]: 0.47 min | Total Sleep Time LS Mean Difference vs Placebo Estimate [8]: -2.26 min | Total Wake Time LS Mean [8]: 35.73 min | Total Wake Time LS Mean Difference vs Placebo Estimate [8]: 18.00 min | Total Sleep Time LS Mean [9]: 1.27 min | Total Sleep Time LS Mean Difference vs Placebo Estimate [9]: -1.88 min | Total Wake Time LS Mean [9]: 32.42 min | Total Wake Time LS Mean Difference vs Placebo Estimate [9]: 22.37 min | Total Sleep Time LS Mean [10]: 4.69 min | Total Sleep Time LS Mean Difference vs Placebo Estimate [10]: 2.47 min | Total Wake Time LS Mean [10]: 21.78 min | Total Wake Time LS Mean Difference vs Placebo Estimate [10]: 15.36 min | Total Sleep Time LS Mean [11]: 5.63 min | Total Sleep Time LS Mean Difference vs Placebo Estimate [11]: 2.71 min | Total Wake Time LS Mean [11]: 13.37 min | Total Wake Time LS Mean Difference vs Placebo Estimate [11]: 9.72 min | Total Sleep Time LS Mean [12]: 3.02 min | Total Sleep Time LS Mean Difference vs Placebo Estimate [12]: 0.26 min | Total Wake Time LS Mean [12]: 25.83 min | Total Wake Time LS Mean Difference vs Placebo Estimate [12]: 16.36 min | Compound A plasma concentration at which magnitude of wake-promoting effects appeared to diminish over time (sleep latency vs plasma concentration by MWT session (FIG. 8)): less than 200 ng/mL
